These results are taken from the OPERA property sets (Mansouri et al. 2018).

Structures are written as SMILES.

Settings in the first data set: not given
The term boiling point denotes the temperature of boiling at a given pressure. By melting point is commonly meant the temperature of the solid-liquid transition. `OCc1ccc(O)cc1`: the boiling point was 252 °C and the melting point stood at 124 °C.
As for `CSCCC=O`, the boiling point came out at 166 °C.
The compound `CC1(C)CCCC1` displayed a boiling point of 87.5 °C, a log10 biodegradation half-life (days) of 1.28, a log10 vapour pressure (mmHg) of 1.88 and a melting point of -69.8 °C.
For the compound `Clc1nc(Cl)c(Cl)c(Cl)n1`, the melting point amounted to 69 °C.
In turn, `O=C1c2ccccc2-c2c(O)cccc21` returned a melting point of 250 °C.
In turn, `CC(C)(C)C(O)C(Oc1ccc(-c2ccccc2)cc1)n1cncn1` (configuration not stated) returned a melting point of 127 °C.
The compound `COC(=O)c1ccc2ccccc2c1` returned a boiling point of 290 °C and a melting point of 77 °C.
Regarding `CC(=O)CO`, the boiling point stood at 146 °C, the melting point is -17 °C and the ready biodegradability entry is “readily biodegradable”.
As to `CCCCCCCCCC(=O)OC(=O)CCCCCCCCC`, the melting point was determined as 24.7 °C.
On to `NC(=O)Nc1cccc(Br)c1`, for which the log10 Koc (L/kg) was found to be 2.12.
As for `Nc1cc(Cl)ccc1[N+](=O)[O-]`, the melting point was found to be 128 °C.
Turning to `ClCc1cccc2ccccc12`, the boiling point stood at 292 °C and the melting point was 32 °C.
`O=C(O)/C=C/c1ccccc1` showed a boiling point of 300 °C, a log10 vapour pressure (mmHg) of -4.49 and a melting point of 133 °C.
Regarding `COc1cc(CCC(C)=O)ccc1O`, the melting point was determined as 40.5 °C.
`CC=CC(C)=O` gave a boiling point of 122 °C.
In turn, `OCC(Cl)(Cl)Cl` came in with a boiling point of 152 °C and a melting point of 19 °C.
`O=S(O)c1ccc(Cl)cc1`: the melting point stood at 99 °C.
Compound `CCCCCOC(C)=O` had a boiling point of 149 °C, a log10 Henry constant (atm·m³/mol) of -3.41, a log10 Koa of 4.12 and a log10 vapour pressure (mmHg) of 0.544. For the same compound, the melting point is -70.8 °C.
In the case of `ClC(Cl)(Cl)Cl`, the boiling point was determined as 76.8 °C, the log10 Henry constant (atm·m³/mol) is -1.56, the log10 Koa amounted to 2.79 and the log10 Koc (L/kg) amounted to 1.85. In addition, the log10 vapour pressure (mmHg) came out at 2.06, the melting point was -23 °C and the ready biodegradability result is “not readily biodegradable”.
`OCCCF` had a boiling point of 128 °C.
The compound `CCCCCC/C=C\CCCCCCCC(=O)O` showed a melting point of 0.2 °C.
As for `Nc1ccc(S(=O)(=O)Nc2ccnn2-c2ccccc2)cc1`, the melting point was 181 °C.
On to `CCCCCCCCSC#N`, for which the melting point worked out at 105 °C.
Compound `O=S(=O)(c1ccccc1)c1ccccc1` showed a boiling point of 279 °C and a melting point of 128 °C.
As for `NC(=O)CC[C@H](N)C(=O)O`, the ready biodegradability result was “readily biodegradable”.
With `CCCCCCCCCCC`, the boiling point came out at 196 °C, the log10 biodegradation half-life (days) was 0.845, the log10 vapour pressure (mmHg) was -0.385 and the melting point was -25.6 °C. Further, the ready biodegradability entry is recorded as “readily biodegradable”.
On to `c1ccc2nn(C3CCCCC3)nc2c1`, for which the melting point came to 46.5 °C.
As for `CC(=O)NCC1(c2ccccc2)CCN(CCCC(=O)c2ccc(F)cc2)CC1`, the melting point amounted to 98.5 °C.
`O=[N+]([O-])c1ccc(Nc2ccc(O)cc2)c([N+](=O)[O-])c1` had a log10 vapour pressure (mmHg) of -11.4 and a melting point of 194 °C.
Compound `N#Cc1cc(I)c([O-])c(I)c1.[Na+]` returned a melting point of 360 °C.
The same measure, in the same setting: to `C=Cc1ccc(C(=O)O)cc1` belongs 144 °C; to `CC(C)(C)NCC(O)COc1cccc2c1C[C@H](O)[C@H](O)C2` (some centres not stated), 130 °C.
`O=[N+]([O-])c1ccc(F)cc1` came in with a boiling point of 205 °C and a melting point of 21 °C.
`CCCCCCCCCCCC(=O)OCc1ccccc1` displayed a melting point of 8.5 °C.
For the compound `c1ccc(-c2cc(-c3ccccc3)cc(-c3ccccc3)c2)cc1`, the boiling point is 462 °C and the melting point came out at 176 °C.
In turn, `C/C=C(\C)C(=O)OCC` displayed a boiling point of 156 °C.
As to `S=C=Nc1cccc(Br)c1`, the boiling point is 256 °C.
As to `C=CCOCCO`, the boiling point came to 158 °C.
Regarding `Cc1ccc(NC(=O)c2ccccc2)cc1`, the melting point came to 158 °C.
Turning to `CC(C)(C)c1ccccn1`, the boiling point came to 170 °C and the melting point is -33 °C.
On to `COc1cc(Cl)ccc1O`, for which the boiling point came to 241 °C and the melting point was 16.5 °C.
Turning to `O=C(O)CSc1ncccn1`, the ready biodegradability entry is on record as “readily biodegradable”.
In the case of `ClC(Br)Br`, the boiling point was 120 °C, the log10 Henry constant (atm·m³/mol) was -3.11, the log10 Koa was determined as 3.59 and the log10 Koc (L/kg) was found to be 1.92. Besides, the melting point was -20 °C and the ready biodegradability entry is “not readily biodegradable”.
Compound `O[C@H]1[C@H]2c3cc4c(cc3CN3CCC(=C[C@@H]1O)[C@H]23)OCO4` came in with a melting point of 280 °C.

Still in this data set, the particulars now being: fish.
`ClC(Cl)(Cl)Cl` registered a log10 BCF of 0.87 and a log10 biotransformation half-life (days) of -1.19.
